Results published in patent US20260306503A1, “(S)-2-HYDROXY-6-((4-(2-(2-HYDROXYETHYL)NICOTINOYL)MORPHOLIN-3-YL)METHOXY)BENZALDEHYD FOR USE IN THE TREATMENT OF SICKLE CELL DISEASE” (Global Blood Therapeutics, Inc., priority 2023, published 2026).

System: participants with SCD
Assay: Preliminary blood analysis of SCD patients given oral Compound I, 300 mg QD for 14 days then 200 mg QD through Week 12 (Part A Sub Study 2);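 on Bilirubin total: values in mg/dL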
Format: in vivo, human
Protocol: Part A of this study is a Phase 2 randomized, open-label, dose-finding study in approximately 60 adult participants with SCD. The primary objective of Part A of this study is to assess the effects of Compound I in adult participants with SCD as measured by change in hemoglobin.
Participants are screened for eligibility in the study from Day −28 through Day −1. Eligible participants are randomized on Day 1 based on a 1:1 (100 mg: 150 mg) allocation and will receive their initial dose (loading dose) of Compound I. After completion of Day 1 assessments and subsequent loading doses, participants will continue with administration of their maintenance dose daily through Week 12.
Some newly enrolled participants in Part A will receive a loading dose regimen of 300 mg of Compound I once daily over the first 14 days. Participants will then receive 200 mg once daily maintenance doses through Week 12.

- Absolute neutrophil (Patient A, Day 1, Day 0 (screening) 1.7): 2.2 K/μL
- Alkaline phosphatase (Patient A, Day 1, Day 0 (screening) 143.5): 152.7 IU/L
- Platelet count (Patient A, Day 1, Day 0 (screening) 148): 219 K/μL
- Absolute neutrophil (Patient A, Day 15, Day 0 (screening) 1.7): 2.2 K/μL
- Alkaline phosphatase (Patient A, Day 15, Day 0 (screening) 143.5): 156.7 IU/L
- Platelet count (Patient A, Day 15, Day 0 (screening) 148): 239 K/μL
- Absolute neutrophil (Patient A, Day 29, Day 0 (screening) 1.7): 0.5 K/μL
- Platelet count (Patient A, Day 29, Day 0 (screening) 148): 211 K/μL
- Absolute neutrophil (Patient A, Day 43, Day 0 (screening) 1.7): 0.6 K/μL
- Alkaline phosphatase (Patient A, Day 43, Day 0 (screening) 143.5): 160.8 IU/L
- Platelet count (Patient A, Day 43, Day 0 (screening) 148): 249 K/μL
- Absolute neutrophil (Patient A, Day 57, Day 0 (screening) 1.7): 3.5 K/μL
- Alkaline phosphatase (Patient A, Day 57, Day 0 (screening) 143.5): 198.2 IU/L
- Platelet count (Patient A, Day 57, Day 0 (screening) 148): 153 K/μL
- Absolute neutrophil (Patient A, Day 85, Day 0 (screening) 1.7): 1.1 K/μL
- Alkaline phosphatase (Patient A, Day 85, Day 0 (screening) 143.5): 150.6 IU/L
- Platelet count (Patient A, Day 85, Day 0 (screening) 148): 146 K/μL
- Absolute neutrophil (Patient B, Day 1, Day 0 (screening) 6.9): 7.3 K/μL
- Alkaline phosphatase (Patient B, Day 1, Day 0 (screening) 49.3): 52.4 IU/L
- Platelet count (Patient B, Day 1, Day 0 (screening) 360): 344 K/μL
- Absolute neutrophil (Patient B, Day 8, Day 0 (screening) 6.9): 4.1 K/μL
- Alkaline phosphatase (Patient B, Day 8, Day 0 (screening) 49.3): 58.5 IU/L
- Platelet count (Patient B, Day 8, Day 0 (screening) 360): 411 K/μL
- Absolute neutrophil (Patient B, Day 29, Day 0 (screening) 6.9): 4.1 K/μL
- Alkaline phosphatase (Patient B, Day 29, Day 0 (screening) 49.3): 67.6 IU/L
- Platelet count (Patient B, Day 29, Day 0 (screening) 360): 333 K/μL
- Absolute neutrophil (Patient B, Day 43, Day 0 (screening) 6.9): 3.7 K/μL
SMILES: O=Cc1c(O)cccc1OC[C@@H]1COCCN1C(=O)c1cccnc1CCO [Compound I, (S)-2-hydroxy-6-((4-(2-(2-hydroxyethyl)nicotinoyl)morpholin-3-yl)methoxy)benzaldehyde]
- Bilirubin direct (Patient A, Day 1, Day 0 (screening) 0.48): <0.01 mg/dL
- Reticulocytes (Patient A, Day 1, Day 0 (screening) 2.2): 5.2%
- Bilirubin total (Patient A, Day 1, Day 0 (screening) 2.4): 2.16 mg/dL
- Hemoglobin (HGB) (Patient A, Day 1, Day 0 (screening) 7.0): 8.8 g/dL
- Hematocrit (HCT) (Patient A, Day 1, Day 0 (screening) 20.4): 25.1%
- Alanine Aminotransferase (ALT) (Patient A, Day 1, Day 0 (screening) 26.1): 28.2 IU/L
- Aspartate Aminotransferase (AST) (Patient A, Day 1, Day 0 (screening) 56.0): 60.0 IU/L
- Lactate dehydrogenase (LDH) (Patient A, Day 1, Day 0 (screening) 358): 339 IU/L
- Bilirubin direct (Patient A, Day 15, Day 0 (screening) 0.48): <0.01 mg/dL
- Reticulocytes (Patient A, Day 15, Day 0 (screening) 2.2): 3.0%
- Bilirubin total (Patient A, Day 15, Day 0 (screening) 2.4): 1.06 mg/dL
- Hemoglobin (HGB) (Patient A, Day 15, Day 0 (screening) 7.0): 10.6 g/dL
- Hematocrit (HCT) (Patient A, Day 15, Day 0 (screening) 20.4): 30.9%
- Alanine Aminotransferase (ALT) (Patient A, Day 15, Day 0 (screening) 26.1): 26.1 IU/L
- Aspartate Aminotransferase (AST) (Patient A, Day 15, Day 0 (screening) 56.0): 43.1 IU/L
- Lactate dehydrogenase (LDH) (Patient A, Day 15, Day 0 (screening) 358): 243 IU/L
- Reticulocytes (Patient A, Day 29, Day 0 (screening) 2.2): 2.0%
- Hemoglobin (HGB) (Patient A, Day 29, Day 0 (screening) 7.0): 12.2 g/dL
- Hematocrit (HCT) (Patient A, Day 29, Day 0 (screening) 20.4): 35.9%
- Bilirubin direct (Patient A, Day 43, Day 0 (screening) 0.48): 0.28 mg/dL
- Bilirubin indirect (Patient A, Day 43, Day 0 (screening) 1.92): 0.78 mg/dL
- Reticulocytes (Patient A, Day 43, Day 0 (screening) 2.2): 1.5%
- Bilirubin total (Patient A, Day 43, Day 0 (screening) 2.4): 1.06 mg/dL
- Hemoglobin (HGB) (Patient A, Day 43, Day 0 (screening) 7.0): 14.9 g/dL
- Hematocrit (HCT) (Patient A, Day 43, Day 0 (screening) 20.4): 43.3%
- Alanine Aminotransferase (ALT) (Patient A, Day 43, Day 0 (screening) 26.1): 28.9 IU/L
- Aspartate Aminotransferase (AST) (Patient A, Day 43, Day 0 (screening) 56.0): 44.1 IU/L
- Lactate dehydrogenase (LDH) (Patient A, Day 43, Day 0 (screening) 358): 193 IU/L
- Bilirubin direct (Patient A, Day 57, Day 0 (screening) 0.48): 0.38 mg/dL
- Bilirubin indirect (Patient A, Day 57, Day 0 (screening) 1.92): 2.39 mg/dL
- Reticulocytes (Patient A, Day 57, Day 0 (screening) 2.2): 0.1%
- Bilirubin total (Patient A, Day 57, Day 0 (screening) 2.4): 2.77 mg/dL
- Hemoglobin (HGB) (Patient A, Day 57, Day 0 (screening) 7.0): 12.4 g/dL
- Hematocrit (HCT) (Patient A, Day 57, Day 0 (screening) 20.4): 36.3%
- Alanine Aminotransferase (ALT) (Patient A, Day 57, Day 0 (screening) 26.1): 66.6 IU/L
- Aspartate Aminotransferase (AST) (Patient A, Day 57, Day 0 (screening) 56.0): 82.9 IU/L
- Lactate dehydrogenase (LDH) (Patient A, Day 57, Day 0 (screening) 358): 345 IU/L
- Bilirubin direct (Patient A, Day 85, Day 0 (screening) 0.48): 0.08 mg/dL
- Bilirubin indirect (Patient A, Day 85, Day 0 (screening) 1.92): 2.81 mg/dL
- Reticulocytes (Patient A, Day 85, Day 0 (screening) 2.2): 5.2%
- Bilirubin total (Patient A, Day 85, Day 0 (screening) 2.4): 2.89 mg/dL
- Hemoglobin (HGB) (Patient A, Day 85, Day 0 (screening) 7.0): 11.0 g/dL
- Hematocrit (HCT) (Patient A, Day 85, Day 0 (screening) 20.4): 31.0%
- Alanine Aminotransferase (ALT) (Patient A, Day 85, Day 0 (screening) 26.1): 28.2 IU/L
- Aspartate Aminotransferase (AST) (Patient A, Day 85, Day 0 (screening) 56.0): 54.0 IU/L
- Lactate dehydrogenase (LDH) (Patient A, Day 85, Day 0 (screening) 358): 354 IU/L
- Bilirubin direct (Patient B, Day 1, Day 0 (screening) 0.18): 0.18 mg/dL
- Bilirubin indirect (Patient B, Day 1, Day 0 (screening) 4.66): 4.17 mg/dL
- Bilirubin total (Patient B, Day 1, Day 0 (screening) 4.84): 4.35 mg/dL
- Hemoglobin (HGB) (Patient B, Day 1, Day 0 (screening) 8.3): 8.5 g/dL
- Reticulocytes (Patient B, Day 1, Day 0 (screening) 11.5): 9.5%
- Alanine Aminotransferase (ALT) (Patient B, Day 1, Day 0 (screening) 22.0): 22.0 IU/L
- Hematocrit (HCT) (Patient B, Day 1, Day 0 (screening) 23.5): 24.7%
- Aspartate Aminotransferase (AST) (Patient B, Day 1, Day 0 (screening) 41.1): 39.1 IU/L
- Lactate dehydrogenase (LDH) (Patient B, Day 1, Day 0 (screening) 371): 351 IU/L
- Bilirubin direct (Patient B, Day 8, Day 0 (screening) 0.18): 0.08 mg/dL
- Bilirubin indirect (Patient B, Day 8, Day 0 (screening) 4.66): 2.32 mg/dL
- Bilirubin total (Patient B, Day 8, Day 0 (screening) 4.84): 2.4 mg/dL
- Hemoglobin (HGB) (Patient B, Day 8, Day 0 (screening) 8.3): 11.2 g/dL
- Reticulocytes (Patient B, Day 8, Day 0 (screening) 11.5): 5.4%
- Alanine Aminotransferase (ALT) (Patient B, Day 8, Day 0 (screening) 22.0): 21.3 IU/L
- Hematocrit (HCT) (Patient B, Day 8, Day 0 (screening) 23.5): 33.1%
- Aspartate Aminotransferase (AST) (Patient B, Day 8, Day 0 (screening) 41.1): 42.1 IU/L
- Lactate dehydrogenase (LDH) (Patient B, Day 8, Day 0 (screening) 371): 385 IU/L
- Bilirubin direct (Patient B, Day 29, Day 0 (screening) 0.18): 0.18 mg/dL
- Bilirubin indirect (Patient B, Day 29, Day 0 (screening) 4.66): 0.88 mg/dL
- Bilirubin total (Patient B, Day 29, Day 0 (screening) 4.84): 1.06 mg/dL
- Hemoglobin (HGB) (Patient B, Day 29, Day 0 (screening) 8.3): 14.4 g/dL
- Reticulocytes (Patient B, Day 29, Day 0 (screening) 11.5): 1.2%
- Alanine Aminotransferase (ALT) (Patient B, Day 29, Day 0 (screening) 22.0): 17.2 IU/L
- Hematocrit (HCT) (Patient B, Day 29, Day 0 (screening) 23.5): 42.8%
- Aspartate Aminotransferase (AST) (Patient B, Day 29, Day 0 (screening) 41.1): 29.1 IU/L
- Lactate dehydrogenase (LDH) (Patient B, Day 29, Day 0 (screening) 371): 195 IU/L
- Bilirubin direct (Patient B, Day 43, Day 0 (screening) 0.18): 0.18 mg/dL
- Bilirubin indirect (Patient B, Day 43, Day 0 (screening) 4.66): 0.51 mg/dL
- Bilirubin total (Patient B, Day 43, Day 0 (screening) 4.84): 0.69 mg/dL
- Hemoglobin (HGB) (Patient B, Day 43, Day 0 (screening) 8.3): 15.2 g/dL
- Reticulocytes (Patient B, Day 43, Day 0 (screening) 11.5): 0.8%
- Alanine Aminotransferase (ALT) (Patient B, Day 43, Day 0 (screening) 22.0): 16.5 IU/L
